Measured values: publication PMC5724930 (Biochemistry, 2017)

Assays:
[1] = target: T1, PanZ (Escherichia coli, UniProt P37613, R73A); experiment: ITC; assay type: binding
T1 construct: PanZ(R73A)

[2] = target: T2, PanZ (Escherichia coli, UniProt P37613); experiment: ITC; also […] Å crystal structure of the PanD–PanZ·AcCoA complex; assay type: binding
T2 construct: PanZ(WT)
T2 sequence (P37613 whole entry): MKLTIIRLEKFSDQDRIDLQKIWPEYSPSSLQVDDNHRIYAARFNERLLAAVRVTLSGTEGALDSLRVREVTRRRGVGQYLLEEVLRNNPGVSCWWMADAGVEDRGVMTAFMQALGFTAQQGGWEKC

T1 sequence (P37613 whole entry R73A): as the sequence (P37613 whole entry) above, with R73A counted along it

CC(=O)SCCNC(=O)CCNC(=O)[C@H](O)C(C)(C)COP(=O)(O)OP(=O)(O)OC[C@H]1O[C@@H](n2cnc3c(N)ncnc32)[C@H](O)[C@@H]1OP(=O)(O)O [AcCoA]
Kd [1]: 220 ± 30 µM | Kd [2]: 0.524 ± 0.064 µM
